Assay results from ChEMBL document CHEMBL1201862, “PubChem BioAssay data set” (2004).
Calls of active or inactive are those of the source. For most assays here, no stated cut-off is given here; in the data, actives have a measured EC50 and inactives only a lower limit.

Tested on: not listed separately
Test: luciferase reporter signal suppression in cells – H4 neuroglioma cells, luminescence, dose response (AID 1990)
Type: functional, cell-based
Settings: not given

Structure (SMILES)	EC50
C=CCCC(=O)Nc1nc(C)c(-c2csc(Nc3cc(OC)ccc3OC)n2)s1	> 120 µM (not active)

Tested on: not listed separately
Test: Luminescence Cell-Based Dose Response HTS to Identify Inhibitors of 5'UTR Stem-Loop Driven Prion Protein mRNA Translation in H4 Neuroglioblastoma Cells. [Related pubchem assays: 1827 (Project Summary), 1813 (Primary HTS)]
Type: functional
Settings: not given

Structure (SMILES)	EC50
C=CCCC(=O)Nc1nc(C)c(-c2csc(Nc3cc(OC)ccc3OC)n2)s1	12.1 µM (active)

Tested on: not listed separately
Test: alpha-synuclein stem-loop luciferase translation blockers – H4 neuroglioma cells, luminescence, confirmation (AID 1988)
Type: functional, cell-based
Settings: not given

Structure (SMILES)	EC50
C=CCCC(=O)Nc1nc(C)c(-c2csc(Nc3cc(OC)ccc3OC)n2)s1	5.52 µM (active)

Tested on: not listed separately
Test: Trypanosoma cruzi growth suppression in host cells – NIH3T3 host cells, beta-gal luminescence, confirmation (AID 2044);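 further: intracellular parasites grown in NIH/3T3 mouse fibroblasts as host cells; luminescent beta-galactosidase reporter signal from transgenic T. cruzi replicating inside host cells; inhibitors lower the luminescence signal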
Type: functional, cell-based
Settings: not given

Structure (SMILES)	EC50
O=[N+]([O-])c1ccc(C2CCCC/C2=N\OCc2cccc(F)c2)c([N+](=O)[O-])c1 (stereo not given)	518 nM (active)
Cc1ccc2sc(N(CCCN(C)C)C(=O)c3ccc(S(=O)(=O)N4CCCCCC4)cc3)nc2c1C	445 nM (active)

Tested on: not listed separately
Test: NIH3T3 cell viability loss – ATP luminescence, mouse fibroblasts, counter-screen, dose response (AID 2010);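 further: cells exposed to compound for about 90 hours before reading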
Type: functional, cell-based
Settings: not given

Structure (SMILES)	EC50
O=[N+]([O-])c1ccc(C2CCCC/C2=N\OCc2cccc(F)c2)c([N+](=O)[O-])c1 (stereo not given)	> 60 µM (not active)
Cc1ccc2sc(N(CCCN(C)C)C(=O)c3ccc(S(=O)(=O)N4CCCCCC4)cc3)nc2c1C	9.3 µM (active)

Tested on: not listed separately
Test: Luminescence Cell-Based Dose Retest to Confirm Inhibitors of Cancer Stem Cells. [Related pubchem assays (depositor defined):AID2717, AID2721]
Type: functional
Settings: Homo sapiens

Structure (SMILES)	AC50
COc1cc(C(=O)OC2CC3CCC2(C)C3(C)C)ccc1OC(C)=O (stereo not given)	3.75 µM (active)
C=CCCC(=O)Nc1nc(C)c(-c2csc(Nc3cc(OC)ccc3OC)n2)s1	0.71 µM (active)
COc1ccccc1-c1c[nH]nc1-c1ccc(OCc2ccccc2F)cc1O	4.88 µM (active)
CCN1CCN(Cc2ccc(OCc3ccccc3)cc2)CC1	1.89 µM (active)
Cc1ccc2nc(N(CCCN(C)C)C(=O)c3cc(-c4cccs4)nc4ccccc34)sc2c1	4.45 µM (active)
CC(=O)N1c2ccc(Cl)cc2C2C=CCC2C1c1cccc2ccccc12 (stereo not given)	2.27 µM (active)
CC(NC(=O)C1CCC(C(=O)NC(C)c2ccccc2)CC1)c1ccccc1 (stereo not given)	> 195 µM (inactive)
Cc1ccc2sc(N(CCCN(C)C)C(=O)c3ccc(S(=O)(=O)N4CCCCCC4)cc3)nc2c1C	3.12 µM (active)
CCOc1ccc(NC(=O)Nc2ccc(Cc3ccncc3)cc2)cc1	8.67 µM (active)
COc1ccc(NS(=O)(=O)c2cccc(C(=O)N/N=C(\C)c3ccc(-n4ccnc4)cc3)c2)cc1	> 195 µM (inactive)

Biological target: T1, Heat shock factor protein 1 (Mus musculus, UniProt P38532)
T1 sequence (P38532 whole entry): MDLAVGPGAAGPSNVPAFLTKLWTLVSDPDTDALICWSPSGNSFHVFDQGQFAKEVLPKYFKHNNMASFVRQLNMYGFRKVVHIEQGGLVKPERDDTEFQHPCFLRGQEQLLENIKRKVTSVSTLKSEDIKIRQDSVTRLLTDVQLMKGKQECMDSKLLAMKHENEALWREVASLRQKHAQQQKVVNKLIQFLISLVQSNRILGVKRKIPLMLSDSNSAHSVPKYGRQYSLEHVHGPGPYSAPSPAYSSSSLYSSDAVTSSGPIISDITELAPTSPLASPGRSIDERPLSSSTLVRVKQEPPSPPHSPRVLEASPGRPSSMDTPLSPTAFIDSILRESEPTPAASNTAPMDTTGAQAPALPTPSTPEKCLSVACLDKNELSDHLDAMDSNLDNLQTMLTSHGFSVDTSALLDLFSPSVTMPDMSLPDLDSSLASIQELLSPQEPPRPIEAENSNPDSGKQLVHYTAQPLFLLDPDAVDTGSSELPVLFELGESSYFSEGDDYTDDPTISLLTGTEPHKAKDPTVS
Test: enhancement of HSF1-driven luciferase signal – cell-based, NIH3T3, luminescence, dose retest, confirmation (AID 435004);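 further: stress induced by proteasome inhibitor MG132 added 30 min after compound; luciferase reporter driven by HSF1 response element in NIH3T3 cells; actives raise luminescence as potentiators of the MG132 stress response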
Type: functional
Settings: not given

Structure (SMILES)	EC50
CCOc1ncccc1C(=O)N(C)CC1COc2ccccc2O1 (stereo not given)	> 260 µM (inactive)
CCOc1ccc(OCCC(=O)OCC(=O)N2CCN(S(=O)(=O)c3ccc(Cl)cc3)CC2)cc1	18.5 µM (active)
O=C(NC(=S)Nc1ccccc1C(F)(F)F)c1ccccc1F	143 µM (active)
COc1ccc(N2CCN(c3ncnc4c3cnn4-c3ccc(C)cc3C)CC2)cc1	> 260 µM (inactive)
CCOC(=O)C(/C=N/c1ccc(C#N)cc1)=C(/O)OCC	> 260 µM (inactive)
O=C(CSc1ncnc2c1nnn2-c1ccc(F)cc1)NCC1CCCO1 (stereo not given)	36.2 µM (active)
O=C(NNc1c(F)c(F)cc(F)c1F)c1ccc(Cl)nc1	> 260 µM (inactive)
CCN(CC)C(=O)CSc1ncnc2sc(C)c(C)c12	> 260 µM (inactive)
COc1ccc(N=Nc2ccc(CO)cc2)cc1	> 260 µM (inactive)

Biological target: T2, Replicative DNA helicase DnaB (Mycobacterium tuberculosis, UniProt P9WMR3)
T2 sequence (P9WMR3 whole entry): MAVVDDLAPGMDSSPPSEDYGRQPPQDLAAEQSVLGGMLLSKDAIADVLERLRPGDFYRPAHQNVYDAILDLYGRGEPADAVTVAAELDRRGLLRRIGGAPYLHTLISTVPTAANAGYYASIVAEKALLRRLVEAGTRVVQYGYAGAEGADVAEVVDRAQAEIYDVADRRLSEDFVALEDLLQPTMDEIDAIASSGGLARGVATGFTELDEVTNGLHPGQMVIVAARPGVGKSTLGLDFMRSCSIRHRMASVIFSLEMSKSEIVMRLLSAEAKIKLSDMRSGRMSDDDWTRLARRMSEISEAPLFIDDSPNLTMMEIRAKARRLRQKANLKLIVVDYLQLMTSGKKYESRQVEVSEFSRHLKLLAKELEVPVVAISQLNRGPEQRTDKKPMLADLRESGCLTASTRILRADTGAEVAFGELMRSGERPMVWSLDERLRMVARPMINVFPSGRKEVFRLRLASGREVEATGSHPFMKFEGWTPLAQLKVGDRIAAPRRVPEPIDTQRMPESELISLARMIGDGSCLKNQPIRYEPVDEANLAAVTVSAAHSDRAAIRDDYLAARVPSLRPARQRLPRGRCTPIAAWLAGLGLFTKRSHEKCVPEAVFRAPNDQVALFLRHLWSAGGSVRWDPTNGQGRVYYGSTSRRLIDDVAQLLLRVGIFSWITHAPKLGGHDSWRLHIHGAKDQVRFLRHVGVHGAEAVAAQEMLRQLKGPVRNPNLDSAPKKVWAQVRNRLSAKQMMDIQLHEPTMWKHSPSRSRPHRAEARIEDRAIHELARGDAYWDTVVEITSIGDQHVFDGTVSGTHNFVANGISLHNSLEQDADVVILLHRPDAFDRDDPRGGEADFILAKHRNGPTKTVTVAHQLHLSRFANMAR
Test: DnaB intein splicing inhibitors, dose response, biochemical, cell-free fluorescence (AID 449749)
Type: functional
Settings: not given

Structure (SMILES)	AC50
O=C(CSc1ncnc2c1nnn2-c1ccc(F)cc1)NCC1CCCO1 (stereo not given)	3.14 µM (active)

Biological target: T3, Protein RecA (Mycobacterium tuberculosis, UniProt P9WHJ3)
T3 sequence (P9WHJ3 whole entry): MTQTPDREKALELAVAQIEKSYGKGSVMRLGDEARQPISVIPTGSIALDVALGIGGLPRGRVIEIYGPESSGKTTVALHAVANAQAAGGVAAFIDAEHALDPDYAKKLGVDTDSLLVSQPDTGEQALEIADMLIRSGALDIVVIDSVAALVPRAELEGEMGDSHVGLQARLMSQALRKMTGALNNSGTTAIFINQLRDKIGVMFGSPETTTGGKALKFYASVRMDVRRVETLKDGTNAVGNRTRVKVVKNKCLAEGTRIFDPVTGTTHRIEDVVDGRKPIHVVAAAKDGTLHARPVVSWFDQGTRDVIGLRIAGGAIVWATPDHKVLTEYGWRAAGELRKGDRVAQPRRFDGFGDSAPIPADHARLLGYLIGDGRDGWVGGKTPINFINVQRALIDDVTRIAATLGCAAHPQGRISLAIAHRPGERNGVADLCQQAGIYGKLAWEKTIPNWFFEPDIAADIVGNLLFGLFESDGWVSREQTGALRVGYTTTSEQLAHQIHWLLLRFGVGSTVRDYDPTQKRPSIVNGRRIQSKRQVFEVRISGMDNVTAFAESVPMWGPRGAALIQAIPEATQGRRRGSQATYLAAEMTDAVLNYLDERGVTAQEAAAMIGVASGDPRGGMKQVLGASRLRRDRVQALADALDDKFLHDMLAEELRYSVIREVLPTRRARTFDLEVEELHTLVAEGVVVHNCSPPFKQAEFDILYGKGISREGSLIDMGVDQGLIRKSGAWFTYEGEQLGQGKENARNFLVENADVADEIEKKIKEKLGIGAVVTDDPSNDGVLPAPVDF
Test: Fluorescence Cell-Free Homogeneous Dose Retest to Identify Inhibitors of RecA-Intein Splicing Activity. [Related pubchem assays (depositor defined):AID2097, AID2223, AID489010, AID492950]
Type: functional
Settings: not given

Structure (SMILES)	EC50
O=C(CSc1ncnc2c1nnn2-c1ccc(F)cc1)NCC1CCCO1 (stereo not given)	3.67 µM (active)

Tested on: INS1
Test: INS-1E survival protection against cytokine death – cell-based, luminescence, retest, dose response (AID 449756);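 further: cell death triggered by IL-1 beta plus TNF-alpha plus IFN-gamma mixture; protective hits raise ATP signal compared with cytokine alone wells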
Type: functional
Settings: Rattus norvegicus, INS1

Structure (SMILES)	AC50
CC(NC(=O)C1CCC(C(=O)NC(C)c2ccccc2)CC1)c1ccccc1 (stereo not given)	> 260 µM (inactive)

Biological target: T4, Cytochrome P450 1A2 (Homo sapiens, UniProt P05177);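 further: PubChem cytochrome P450 panel assay, CYP1A2 panel member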
T4 sequence (P05177 whole entry): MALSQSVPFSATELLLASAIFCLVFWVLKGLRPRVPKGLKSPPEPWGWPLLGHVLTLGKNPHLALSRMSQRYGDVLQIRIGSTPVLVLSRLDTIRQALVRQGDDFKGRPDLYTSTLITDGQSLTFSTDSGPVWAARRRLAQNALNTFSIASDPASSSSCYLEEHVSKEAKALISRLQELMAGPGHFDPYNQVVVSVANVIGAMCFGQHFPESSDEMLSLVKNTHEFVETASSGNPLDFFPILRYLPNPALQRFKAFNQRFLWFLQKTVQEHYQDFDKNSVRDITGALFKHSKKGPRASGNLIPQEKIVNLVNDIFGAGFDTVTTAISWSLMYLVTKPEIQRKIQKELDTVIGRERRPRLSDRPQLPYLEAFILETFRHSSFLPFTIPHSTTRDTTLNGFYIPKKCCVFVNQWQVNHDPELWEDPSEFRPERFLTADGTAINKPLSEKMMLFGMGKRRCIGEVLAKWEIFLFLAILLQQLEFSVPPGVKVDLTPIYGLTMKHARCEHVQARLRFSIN
Settings: not given

Structure (SMILES)	AC50
O=[N+]([O-])c1ccc(C2CCCC/C2=N\OCc2cccc(F)c2)c([N+](=O)[O-])c1 (stereo not given)	15.8 µM (inconclusive)
